Experimental data as given in patent US20240165150A1, “COMBINATION FOR TREATMENT OF THROMBOINFLAMMATION” (TX MEDIC AB, priority 2021, published 2024).

Legend:
Type in all cases: cell-based
human whole blood [1] = assay: Complement split products C3a and C5a by ELISA in blood loop system
Method: (§1) Materials and Methods Dextran sulfate (IBsolvMIR®, Tikomed AB, Viken, Sweden, WO 2016/076780), heparin (Heparin LEO®, LEO Pharma, cat. No. 585679) and WI-38 cells (American Type Culture Collection (ATCC)) were administered to blood loops as shown in Table 1. Vehicle was an aqueous 0.9% NaCl solution. Each loop contained in total 2 ml of freshly taken human whole blood from three blood donors. Reagents were added to the loops according to Table 1 and the loops were set to rotate at 37° C. Blood samples were taken at the zero, 15 min, 1 hour and 4 hour time points.
Complement analysis Complement split product C3a and C5a concentrations were measured by ELISA according to the manufacturer's instructions (RayBio® Human C3a and C5a ELISA Kit for serum, plasma, and cell culture supernatants by RayBiotech) at the zero, 15 min and 1 hour time points.

human whole blood [2] = assay: Coagulation (blood clot size) and hemolysis in IBMIR blood loop system
Method: as §1
Clot scale: 1=Small clot observed (<2 mm), 2=Medium-sized clot observed (2-5 mm), 3=Large clot observed (>5 mm), * Clot removed from loop (not noted at 4 h when all blood was removed from loop), n.s.=no sample. Hemolysis: +=hemolysis observed in blood loop.

human whole blood [3] = assay: Hematology analysis (cell counts) in IBMIR blood loop system; conditions: WI-38 cells 1 × 10^5/2 ml, 1 hour, IBsolvMIR 0.2 mg/ml, heparin 0, 0.2 or 0.5 U/ml
Method: as §1
Blood samples were extracted from loops at the zero and 1 hour time points and platelets, red blood cells and white blood cells were automatically counted using a Sysmex XN-L 350 Hematology Analyzer.

human whole blood [4] = assay: Flow cytometry analysis of blood from blood loops; conditions: 1 hour
Method: as §1
Fresh blood was collected and immediately mixed with ethylenediaminetetraacetic acid (EDTA) (zero time point samples) or added to loops followed by sampling and mixing with EDTA at the 1 hour time point. Data was analyzed using flow cytometry.

human whole blood [5] = assay: Cytokine analysis by electrochemiluminescence in blood loop system
Method: as §1
Blood was extracted from loops at the zero and 4 hour time points and cytokines were analyzed by electrochemiluminescence (ECL) in multiplex mode using MESO QuickPlex SQ 120 (Mesoscale Discovery).

[6] = WI-38-treated loops, three donors
[7] = agent alone, WI-38 cells, listed as Dextran sulfate
[8] = vs corresponding WI-38 treated without IBsolvMIR
[9] = heparin 0.2 or 0.5 U/ml combined with IBsolvMIR 0.2 mg/ml, WI-38 cells
[10] = vehicle at 0.5 U/ml heparin, donors D2 and D3, 4 hour

Substance: Dextran sulfate [IBsolvMIR®]
- C3a increase in WI-38 treated groups (human whole blood [1]; 15 min time point): entirely blocked
- C5a vs corresponding treatment without IBsolvMIR (human whole blood [1]; 1 hour time point): lower in almost every donor in every group
- C3a vs corresponding treatment without IBsolvMIR (human whole blood [1]; no heparin, 0.2 and 0.5 U/ml heparin, with and without WI-38 cells, 15 min and 1 hour): decreased C3a
- Clotting, loops without WI-38 cells (human whole blood [2]; IBsolvMIR alone loops, all donors, 15 min to 4 hours): No clotting was observed
- Clotting at 15 minutes (human whole blood [2]; [6]): no clotting was observed
- Clotting at one hour (human whole blood [2]; [6]): medium-sized clots were observed in two WI-38+IBsolvMIR® loops
- WBC counts (WI-38 induced decrease) (human whole blood [3]): completely rescued the WBC decrease
- WBC counts (WI-38 induced decrease) (human whole blood [3]; listed as dextran sulfate): capable of restoring WBC counts
- Activation of granulocytes (CD66b+) (human whole blood [4]; WI-38 cells): overall decreased activation profile
- Activation of monocytes (CD14+) (human whole blood [4]; WI-38 cells): overall decreased activation profile
- Aggregation of platelets (decrease in proportion of single platelets) (human whole blood [4]; WI-38 cells): entirely revoked
- B cell count (WI-38 dependent decrease) (human whole blood [4]; WI-38 cells): entirely reversed up to vehicle level
- Frequency of granulocytes (human whole blood [4]; WI-38 cells): increased frequency
- Frequency of monocytes (human whole blood [4]; WI-38 cells): increased frequency
- TF positive cell counts (human whole blood [4]; WI-38 treated groups with vs without IBsolvMIR): about ten-fold
- C5b-9 formation on platelets (proportion of C5b-9 positive platelets) (human whole blood [4]; agent alone, WI-38 cells): partly reverted
- Platelet binding to WI-38 cells (cell transplant) (human whole blood [4]; agent alone, WI-38 cells): partly reverted
- Proportion of platelets bound to granulocytes (human whole blood [4]; agent alone, WI-38 cells): capable of reducing
- Proportion of platelets bound to monocytes (human whole blood [4]; agent alone, WI-38 cells): capable of reducing
- C5b-9 formation on platelets (proportion of C5b-9 positive platelets) (human whole blood [4]; [7]): capable of reducing
- Platelet binding to WI-38 cells (cell transplant) (human whole blood [4]; [7]): capable of reducing
- Complement activation (C5b-9) on TF positive cells (human whole blood [4]; vs WI-38 alone): lower
- Frequency of apoptotic (annexin +) TF+ cells (human whole blood [4]; [8]): lower
- Frequency of dead (annexin + and/or viability dye +) TF+ cells (human whole blood [4]; [8]): lower
- IL-6 cytokine release (human whole blood [5]; 4 hour time point): ambiguous
- MCP-1 levels (human whole blood [5]; IBsolvMIR alone groups vs corresponding vehicle, 4 hour): higher than corresponding vehicle
- MCP-1 levels (human whole blood [5]; WI-38 cells with IBsolvMIR vs corresponding WI-38 alone group, 4 hour): slightly increased levels of MCP-1
- IL-8 release (human whole blood [5]; vehicle and WI-38 cell-induced, 4 hour): clear IBsolvMIR® dependent reduction

Substance: heparin [reference compound]
- WBC counts (WI-38 induced decrease) (human whole blood [3]): does not affect WBC counts
- C5b-9 formation on platelets (proportion of C5b-9 positive platelets) (human whole blood [4]; agent alone, WI-38 cells): did not have any effects
- Platelet binding to WI-38 cells (cell transplant) (human whole blood [4]; agent alone, WI-38 cells): did not have any effect at all
- Proportion of platelets bound to granulocytes (human whole blood [4]; agent alone, WI-38 cells): did not have any effect at all
- Proportion of platelets bound to monocytes (human whole blood [4]; agent alone, WI-38 cells): did not have any effect at all
- C5b-9 formation on platelets (proportion of C5b-9 positive platelets) (human whole blood [4]; [9]): clear concentration-dependent effect
- Platelet binding to WI-38 cells (cell transplant) (human whole blood [4]; [9]): potentiated the effects of IBsolvMIR®
- C5b-9 formation on platelets (proportion of C5b-9 positive platelets) (human whole blood [4]; heparin 0.2 or 0.5 U/ml combined with IBsolvMIR 0.2 mg/ml, WI-38 cells, listed as Heparin): potentiated the effects of IBsolvMIR®
- IL-6 response (human whole blood [5]; [10]): > 100 fold
- TNF-α release (human whole blood [5]; [10]): dramatic elevated vehicle response
